In BindingDB's records for patent US20250059220 (Merck Sharp & Dohme, 2025):

How the values were obtained:
[1] = biological target: T1, Tyrosine-protein phosphatase non-receptor type 2 (Homo sapiens, UniProt P17706); test: PTPN2 Biochemical Assay
T1 sequence (P17706 whole entry): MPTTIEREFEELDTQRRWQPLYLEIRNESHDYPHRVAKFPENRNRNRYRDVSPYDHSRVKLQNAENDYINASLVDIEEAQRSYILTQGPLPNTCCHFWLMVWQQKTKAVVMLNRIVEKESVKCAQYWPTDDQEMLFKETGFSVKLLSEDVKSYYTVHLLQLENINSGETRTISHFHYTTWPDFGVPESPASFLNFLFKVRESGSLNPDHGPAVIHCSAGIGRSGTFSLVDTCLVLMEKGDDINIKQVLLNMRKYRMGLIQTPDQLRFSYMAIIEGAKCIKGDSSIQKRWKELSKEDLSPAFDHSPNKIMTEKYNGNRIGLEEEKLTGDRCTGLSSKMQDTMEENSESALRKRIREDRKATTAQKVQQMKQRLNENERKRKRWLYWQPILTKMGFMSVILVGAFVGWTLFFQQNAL
Description: Test compounds were dissolved in DMSO, and 10-point serial 3-fold dilution series in DMSO were prepared in Echo Qualified 384-well Polypropylene Microplates (Labcyte, San Jose, CA) (top concentration 50 µM). Assay plates (384-well low volume black plates; Corning #3820, Corning, NY) were prepared by dispensing 50 nL of test compound, and DMSO (for high and low controls) by ECHO acoustic dispenser (Labcyte, San Jose CA). This was followed by addition of 5 μL of 0.2 nM human PTPN2 (1-387) solution (prepared in the assay buffer, 50 mM Tris pH 7.4, 150 mM NaCl, 0.01% Tween20, 0.5 mM dithiothreitol) to all wells except the low control. 5 μl of assay buffer was added into the low control, then the plate was incubated for 30 minutes at room temperature. Subsequently, 5 μl of 100 µM DiFMUP (6,8-difluoro-4-methylumbelliferyl phosphate) solution (prepared in assay buffer from 10 mM stock in DMSO) was added to the assay plate and incubated for 1 hour at room temperature. For detection, assay plates were read on SpectraMax Microplate Reader (Molecular Devices), with Excitation wavelength=360 nm and Emission wavelength=460 nm.

[2] = biological target: T2, Tyrosine-protein phosphatase non-receptor type 1 (Homo sapiens, UniProt P18031); test: PTPN1 Biochemical Assay
T2 sequence (P18031 whole entry): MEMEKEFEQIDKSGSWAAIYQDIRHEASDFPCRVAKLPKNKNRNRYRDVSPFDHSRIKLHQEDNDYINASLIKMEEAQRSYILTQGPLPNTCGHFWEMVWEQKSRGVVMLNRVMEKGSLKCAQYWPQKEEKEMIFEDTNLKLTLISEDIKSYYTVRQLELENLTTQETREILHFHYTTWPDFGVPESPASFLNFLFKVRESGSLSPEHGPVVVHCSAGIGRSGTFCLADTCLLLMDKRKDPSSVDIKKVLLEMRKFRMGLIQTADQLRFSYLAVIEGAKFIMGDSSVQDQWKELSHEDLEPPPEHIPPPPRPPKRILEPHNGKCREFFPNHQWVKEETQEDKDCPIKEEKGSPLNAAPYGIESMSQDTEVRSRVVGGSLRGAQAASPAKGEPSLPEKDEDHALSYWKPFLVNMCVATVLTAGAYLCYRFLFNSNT
Description: Test compounds were dissolved in DMSO, and 10-point serial 3-fold dilution series in DMSO were prepared in Echo Qualified 384-well Polypropylene Microplates (Labcyte, San Jose, CA) (top concentration 50 µM). […] 5 μl of assay buffer was added into the low control. The plate was incubated for 30 minutes at room temperature. Subsequently, 5 μl of 100 µM DiFMUP (6,8-difluoro-4-methylumbelliferyl phosphate) solution (prepared in assay buffer from 10 mM stock in DMSO) was added to the assay plate and incubated for 1 hour at room temperature. For detection, assay plates were read on SpectraMax Microplate Reader (Molecular Devices), with Excitation wavelength=360 nm and Emission wavelength=460 nm.

SMILES | IC50 [1] | IC50 [2]
CS(=O)(=O)CCCOc1cc(C(N)=O)cc2c(C3CC3)c(C(F)(F)P(=O)(O)O)sc12 [US20250059220, Compound 458] | 68.1 nM | 78.6 nM
Cc1ccc(COc2cc(C(N)=O)cc3c(Br)c(C(F)(F)P(=O)(O)O)sc23)cc1C [US20250059220, Compound 358] | 54.8 nM | 106 nM
